The values that follow come from patent US20120244071A1, “FTY720 HALOGENATED DERIVATIVES” (Novartis AG, priority 2009, published 2012).

What is called EC50 is the concentration that produces a half-maximal response. Lower therefore signals a more potent agent.

In test [1] the target is T1, S1P1 (Homo sapiens, UniProt P21453). The test can be described thus: GTPγS binding assay using S1P receptor/CHO membranes preparation. More on the design: expressed in transfected cells; membrane preparation. As to conditions: [35S]GTPγS, CHO membranes, SPA. The format is biochemical. As for the experimental part:
(§1) GTPγS Binding Assay Using S1P Receptor/CHO Membranes Preparation
(§2) The assay is based on the SPA technology (Amersham) and run in a 96 well format. Membranes are prepared from CHO cells stably expressing the S1P receptor of interest. Aliquots are stored at −80° C. Membranes (5-10 μg/well) resuspended in assay buffer (20 mM HEPES, pH7.4, 100 mM NaCl, 10 mM MgCl2 and 0.1% fat free BSA) containing 25 μg/mL Saponin and 10 μM GDP are mixed WGA-coated SPA beads (final conc. 1 mg/well). Ligand and [^35S]GTPγS (1250 Ci/mmol, final concentration 0.2 nM) are added and the plate sealed. After incubation at room temperature for 120 minutes under constant shaking the plates are centrifuged for 10 minutes at 1000×g to pellet the SPA beads. Then the plates are measured in a TopCount NXT instrument (Packard) and the data analyzed using GraphPad PRISM software.
Target sequence in this assay (P21453 whole entry): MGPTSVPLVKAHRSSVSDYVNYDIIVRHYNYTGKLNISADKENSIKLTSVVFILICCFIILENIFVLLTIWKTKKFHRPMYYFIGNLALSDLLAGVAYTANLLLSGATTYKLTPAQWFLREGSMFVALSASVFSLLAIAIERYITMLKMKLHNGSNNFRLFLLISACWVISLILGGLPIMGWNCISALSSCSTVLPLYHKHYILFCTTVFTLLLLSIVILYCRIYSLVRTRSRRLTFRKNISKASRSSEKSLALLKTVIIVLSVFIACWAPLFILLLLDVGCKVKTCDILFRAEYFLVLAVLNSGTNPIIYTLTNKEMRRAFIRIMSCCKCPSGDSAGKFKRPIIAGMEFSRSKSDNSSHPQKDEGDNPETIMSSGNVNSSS
A general note: Binding of GTPγS marks nucleotide exchange on a G protein.

The target in test [2] is T2, S1P3 (Homo sapiens, UniProt Q99500). The test is described as above. As to conditions: [35S]GTPγS, CHO membranes, SPA. More on the design: expressed in transfected cells; membrane preparation. The format is biochemical. As for the experimental part: as §1, §2
Target sequence in this assay (Q99500 whole entry): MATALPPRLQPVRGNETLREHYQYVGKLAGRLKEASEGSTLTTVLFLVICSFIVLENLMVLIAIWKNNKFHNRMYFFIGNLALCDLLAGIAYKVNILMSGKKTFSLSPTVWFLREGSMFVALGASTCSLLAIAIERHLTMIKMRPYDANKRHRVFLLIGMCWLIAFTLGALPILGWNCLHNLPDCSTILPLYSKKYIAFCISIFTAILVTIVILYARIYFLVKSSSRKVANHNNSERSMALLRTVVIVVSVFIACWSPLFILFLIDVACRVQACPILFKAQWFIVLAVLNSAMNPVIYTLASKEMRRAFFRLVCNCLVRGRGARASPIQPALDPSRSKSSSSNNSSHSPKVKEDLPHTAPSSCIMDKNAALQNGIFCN
Test [3] has as its target T3, S1P4 (Homo sapiens, UniProt O95977).
T3 sequence (O95977 1-384): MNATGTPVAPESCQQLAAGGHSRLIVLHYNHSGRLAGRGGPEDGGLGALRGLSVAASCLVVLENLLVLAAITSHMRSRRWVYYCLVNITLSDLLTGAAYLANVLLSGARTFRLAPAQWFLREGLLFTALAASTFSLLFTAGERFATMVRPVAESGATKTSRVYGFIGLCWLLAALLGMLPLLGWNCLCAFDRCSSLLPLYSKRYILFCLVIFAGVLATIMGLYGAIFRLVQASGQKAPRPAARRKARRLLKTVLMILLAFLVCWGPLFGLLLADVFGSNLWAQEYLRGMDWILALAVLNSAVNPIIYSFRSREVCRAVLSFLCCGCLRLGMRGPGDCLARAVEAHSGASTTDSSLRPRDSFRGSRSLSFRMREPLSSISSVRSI
The description is as above. The test is classed as biochemical. On the set-up: expressed in transfected cells; membrane preparation. The conditions noted are these: [35S]GTPγS, CHO membranes, SPA. How it is done: as §1, §2

The target of test [4] is T4, S1P5 (Homo sapiens, UniProt Q9H228). The description is as above. The format is biochemical. On the set-up: expressed in transfected cells; membrane preparation. The conditions noted are these: [35S]GTPγS, CHO membranes, SPA. As for the experimental part: as §1, §2
Target sequence in this assay (Q9H228 whole entry): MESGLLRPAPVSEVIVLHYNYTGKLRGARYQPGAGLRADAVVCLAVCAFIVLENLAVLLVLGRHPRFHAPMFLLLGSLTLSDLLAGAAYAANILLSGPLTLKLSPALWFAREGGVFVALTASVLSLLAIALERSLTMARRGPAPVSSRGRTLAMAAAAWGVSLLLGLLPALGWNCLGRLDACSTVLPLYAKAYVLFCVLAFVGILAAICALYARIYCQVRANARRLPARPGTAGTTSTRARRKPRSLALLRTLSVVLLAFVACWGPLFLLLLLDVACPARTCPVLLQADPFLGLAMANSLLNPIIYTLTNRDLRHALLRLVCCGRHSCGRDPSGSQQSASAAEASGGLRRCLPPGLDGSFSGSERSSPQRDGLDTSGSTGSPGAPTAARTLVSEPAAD
In test [5] the test system is peripheral blood lymphocytes. The test can be described thus: Blood Lymphocyte Depletion assay in Lewis rats. The test is classed as in vivo. The conditions noted are these: intravenous. How it is done: Percent of Lymphocyte Depletion in Lewis Rats
The lymphocyte homing property may be measured in following Blood Lymphocyte Depletion assay:
A S1P receptor agonist or the vehicle is administered intravenously to rats. […] In this assay, the S1P receptor agonist depletes peripheral blood lymphocytes, e.g. by 50%, when administered at a dose of e.g. <20 mg/kg. Preferred S1P receptor agonists are further compounds which in addition to their S1P binding properties internalize/desensitize S1P receptors, thereby antagonizing inflammatory processes driven by lysophospholipids, including i.e. sphingosine 1-phosphate (S1P), sphingophosphorylcholine (SPC), lysophosphatidic acid (LPA), and others, on vasculature cells, e.g. endothelial cells. The internalization/desensitization capacity of compounds will be determined using CHO cells transfected with a human myc-tagged S1P receptor.

For test [6], the target named is T1, S1P1. As to conditions: background statement; cited from earlier work.
Target sequence in this assay (P21453 whole entry, species assumed): as the sequence (P21453 whole entry) above
Test [7] has as its target T3, S1P4. As to conditions: background statement; cited from earlier work.
In test [8] the target is T4, S1P5. The conditions noted are these: background statement; cited from earlier work.
Target sequence in this assay (Q9H228 whole entry, species assumed): as the sequence (Q9H228 whole entry) above
In test [9] the target is T2, S1P3. As to conditions: background statement, about 10-fold lower affinity; cited from earlier work.
Target sequence in this assay (Q99500 whole entry, species assumed): as the sequence (Q99500 whole entry) above
Another test has as its target S1P2 (Homo sapiens, UniProt O95136). The conditions noted are these: background statement; cited from earlier work.

Structures can show the parent of a compound that is named as a salt.

Sequence of S1P2 (O95136 whole entry, species assumed): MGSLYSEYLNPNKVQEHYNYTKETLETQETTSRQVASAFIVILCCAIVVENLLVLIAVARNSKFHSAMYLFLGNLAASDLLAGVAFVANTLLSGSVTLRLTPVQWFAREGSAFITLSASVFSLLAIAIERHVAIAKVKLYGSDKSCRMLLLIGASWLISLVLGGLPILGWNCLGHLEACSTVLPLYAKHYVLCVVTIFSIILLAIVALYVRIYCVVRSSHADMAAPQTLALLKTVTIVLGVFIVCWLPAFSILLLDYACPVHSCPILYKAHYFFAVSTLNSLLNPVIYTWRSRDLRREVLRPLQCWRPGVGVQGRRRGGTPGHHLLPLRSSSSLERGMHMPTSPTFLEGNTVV

In the case of `C=C(I)CCCCOc1ccc(CCC(N)(CO)COP(=O)(O)O)cc1` (racemic) [Example F, (R/S)-Phosphoric acid mono-{2-amino-2-hydroxymethyl-4-[4-(5-iodo-hex-5-enyloxy)-phenyl]-butyl}ester], the EC50 on S1P1 [1] came to 1.6 nM; at S1P3 [2], 8.6 nM; on S1P4 [3], 2.9 nM; at S1P5 [4] it was 1.4 nM.
As to `CCCCCCCCc1ccc(CCC(N)(CO)CO)c(I)c1` [Example H, 2-Amino-2-[2-(2-iodo-4-octylphenyl)ethyl]-1,3-propandiol], the “Percent of Lymphocyte Depletion” value is recorded as 67% in test [5] (2 hours post treatment), 89% in [5] (10 hours post treatment) and 89% in [5] (24 hours post treatment).
As to `CCCCCCCCc1ccc(CCC(N)(CO)CO)cc1I` [Example G, 2-Amino-2-[2-(3-iodo-4-octylphenyl)ethyl]-1,3-propandiol], the results for the “Percent of Lymphocyte Depletion” value in test [5] (2 hours post treatment), in test [5] (10 hours post treatment) and in test [5] (24 hours post treatment) were 51%, 88% and 87%, respectively.
`CCCCCCCOc1ccc(CC[C@](N)(CO)COP(=O)(O)O)cc1I` [Example L, Phosphoric acid mono-{(S)-2-amino-2-hydroxymethyl-4-[2-(3-iodo-4-(heptyloxy)phenyl)butyl]}ester]: the figures for the EC50 at S1P1 [1] and on S1P5 [4] were 0.3 nM and 0.7 nM, respectively.
In the case of `C=C(I)CCCCOc1ccc(CCC(N)(CO)CO)cc1` [Example E, 2-Amino-2-{2-[4-(5-iodo-hex-5-enyloxy)-phenyl]-ethyl}-propane-1,3-diol HCl salt], the “Percent of Lymphocyte Depletion” value in [5] (2 hours post treatment) is 64%; in test [5] (10 hours post treatment), 82%; in test [5] (24 hours post treatment), 80%.
Take `CCCCCCCCc1ccc(CC[C@](N)(CO)COP(=O)(O)O)c(I)c1` [Example K, Phosphoric acid mono-{(S)-2-amino-2-hydroxymethyl-4-[2-(2-iodo-4-octylphenyl)butyl]}ester]: the EC50 turned out to be 0.24 nM at S1P1 [1], 46 nM at S1P3 [2], 7.1 nM on S1P4 [3] and 1.5 nM on S1P5 [4].
The like results for `NC(CO)(CCc1ccc(OCCCC/C=C/I)cc1)COP(=O)(O)O` (racemic) [Example B, (R/S)-phosphoric acid mono-{2-amino-2-hydroxymethyl-4-[4-((E)-6-iodo-hex-5-enyloxy)-phenyl]-butyl}ester] were, in that order, 0.69 nM, 1.2 nM, 0.84 nM and 0.62 nM.
The like results for `NC(CO)(CCc1ccc(OCCCC/C=C\I)cc1)COP(=O)(O)O` (racemic) [Example D, (R/S)-phosphoric acid mono-{2-amino-2-hydroxymethyl-4-[4-((z)-6-iodo-hex-5-enyloxy)-phenyl]-butyl}ester] were, in that order, 1.3 nM, 3 nM, 1.9 nM and 1.1 nM.
In the case of `CCCCCCCCc1ccc(CCC(N)(CO)CO)cc1` [FTY720, 2-amino-2-[2-(4-octylphenyl)ethyl]propane-1,3-diol], the “Percent of Lymphocyte Depletion” value in test [5] (2 hours post treatment) is recorded as 71%; in test [5] (10 hours post treatment), 86%; in test [5] (24 hours post treatment) it was 86%. In addition, the “affinity to S1P1” value at S1P1 [6] is reported as 0.3 nM. The “affinity to S1P4” value at S1P4 [7] was 0.6 nM. Besides, the “affinity to S1P5” value at S1P5 [8] was 0.3 nM. Moreover, the “affinity to S1P3” value at S1P3 [9] is 3.1 nM. At S1P2, the “binding to S1P2” value is given as “not”.
On to `CCCCCCCCc1ccc(CC[C@](N)(CO)COP(=O)(O)O)cc1I` [Example J], for which the EC50 on S1P1 [1] amounted to 0.17 nM; on S1P3 [2], 84 nM; at S1P4 [3], 4.9 nM; on S1P5 [4], 2 nM.
